Laboratory results from paper PMC8780580, “The Neuroactive Steroid Pregnanolone Glutamate: Anticonvulsant Effect, Metabolites and Its Effect on Neurosteroid Levels in Developing Rat Brains” (Pharmaceuticals, 2021).
Counter-ions that a name gives are not always drawn.

What was measured:
[1] = Steroidomic (GC-MS/MS) analysis of hippocampal tissue after PA-G administration; details: for percentage of total significantly increased (5β) steroids in the rat hippocampus / fold increase in the concentration in the rat hippocampus above the basal levels / concentration at 20 min: 20 min after PA-G i.p., 1 mg/kg in CDX; for increase in concentration compared with basal levels / measurable concentration in the rat brain: after PA-G i.p.; for concentration at 20 min: male, Wistar, rat, in vivo, ip, Steroid concentration in hippocampal tissue, PA-G-Treated (P);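 on all read-outs here: hippocampal steroids quantified by GC-MS/MS, covering free and conjugated forms after hydrolysis, compared against intact rats and rats injected with CDX vehicle alone, five animals per group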
Experimental: In a separate experiment, samples of the hippocampus were obtained from male albino Wistar rats in 6 experimental groups consisting of P12 and P25 animals that were either intact (I), controls (C, i.p. application of a solution of CDX), or in the experimental group (i.p. application of PA-G in a solution of CDX at a dose of 1 mg/kg). Each group consisted of 5 animals. The animals were sacrificed using ether anaesthesia (Penta, Czech Republic) 30 min after administration of the drug. The hippocampi were quickly removed, weighed, and frozen at −80 °C in sterile plastic microvials until analysis.
An amount of 17–100 mg of the hippocampal tissue was minced and then administered into screw-cap tubes. Next, 2 mL of methanol with a mixture of internal standards was added, and the samples were incubated for 1 week in a refrigerator at 4 °C with agitation for 2 min once a day. Afterwards, the extract was transferred into new screw-cap tubes and dried in a vacuum centrifuge at 45 °C. After that, 1 mL of water of chromatographic purity was added, and the samples were further treated as described in our recently published paper [76].
Briefly, the unconjugated steroids were extracted from a testing sample with diethyl-ether, the extract was dried, and the lipids were separated by partitioning between a mixture of methanol with water (4:1, v/v) and pentane. The pentane phase was discarded, and the polar phase was dried and used for further analysis of the unconjugated steroids. Steroid conjugates remaining in the polar residue after diethyl ether were hydrolyzed to their parent hydroxy steroids (unconjugated molecules) and analyzed.

GABAARs = system: GABAARs; parameters: method as in PMID 29886074; details: isolated pyramidal neurons of the rat hippocampus, cited from earlier work
[2] = system: pentylenetetrazol-induced seizures; assay: Pentylenetetrazol (PTZ)-induced seizures in 12- and 25-day-old rats; format: in vivo, male Wistar albino rats; details: for incidence of generalized seizures (GS): i.p. 20 mg/kg (highest dose tested)
Experimental: Solutions of PA-G and PA-S were administered intraperitoneally at a concentration of 1 mg/mL, and doses of 1, 5, 10, and 20 mg/kg were used. The solutions of zuranolone were administered intraperitoneally at a concentration of 1 mg/mL, and doses of 0.5, 1, 5, and 10 mg/kg were used. Controls were injected with CDX solution in a volume corresponding to the highest dose (i.e., 20 mL/kg). The same control group was used for PA-S and PA-G. Pentylenetetrazol (PTZ, Sigma Aldrich, Gillingham, Dorset, UK) was dissolved in water in a concentration of 50 mg/mL and was administered subcutaneously at a dose of 100 mg/kg 20 min after the administration of PA-G or PA-S. Each age and dose group comprised 8 animals. The rats were placed individually into plexiglass boxes and were then observed for 30 min after PTZ injection. The incidence, severity, and latencies of seizures were assessed. Younger animals were placed on a pad heated to 34 °C, i.e., to the temperature in the nest for the whole duration of the experiment because of immature thermoregulation. Generalized tonic-clonic or clonic seizures with a loss of righting reflexes were present after a dose of 100 mg/kg of PTZ in all control animals in both age groups. […] The severity of seizures was quantified using a five-point scale as follows: 0—no changes; 0.5—abnormal behaviour (e.g., automatisms, increased orienting reaction); 1—isolated myoclonic jerks; 2—atypical or prolonged minimal seizures; 3—clonic seizures (mS) involving head and forelimb muscles with preserved righting reflexes (older-term minimal pentetrazol seizures); 4—generalized seizures without the tonic phase (GCS); 5—complete generalized tonic-clonic seizures (GTCS).

NMDARs = details: NMDA-induced currents, transfected HEK293 cells; cited from earlier work
[3] = P12 rats, i.p. doses of 5 and 10 mg/kg

## C[C@]12CC[C@@H](O)C[C@H]1CC[C@@H]1[C@@H]2CC[C@]2(C)C(=O)CC[C@@H]12 [Etiocholanolone (ETIO), etiocholanolone]
[1]; P12
  percentage of total significantly increased (5β) steroids in the rat hippocampus: 0.1%
[1]; P12 animals, 1 mg/kg
  increase in concentration compared with basal levels: ~12 fold
[1]; P25
  percentage of total significantly increased (5β) steroids in the rat hippocampus: 0.08%
[1]; P25 animals, 1 mg/kg
  increase in concentration compared with basal levels: ~2 fold

## CC(=O)[C@H]1CCC2C3CC[C@@H]4C[C@H](OC(=O)[C@@H](N)CCC(=O)O)CC[C@]4(C)C3CC[C@@]21C (stereo partly drawn) [PA-G, 20-oxo-5β-pregnan-3α-yl L-glutamyl 1-ester]
[1]; P12
  fold increase in the concentration in the rat hippocampus above the basal levels: 199 x
  percentage of total significantly increased (5β) steroids in the rat hippocampus: 6.04%
[1]; P25
  fold increase in the concentration in the rat hippocampus above the basal levels: 9.76 x
  percentage of total significantly increased (5β) steroids in the rat hippocampus: 10.8%
GABAARs
  maximum potentiation of IGABA peak amplitude: up to 422%
GABAARs; read-out: EC50 (increase of IGABA peak)
  EC50: 7 µM
[2]; P12 rats, Kruskal-Wallis over dose groups
  latencies of GS: increase in the latencies of GS
[2]; P12 rats
  incidence of generalized seizures (GS): prevented the development of GS in all animals
[2]; P12 rats, i.p. 1, 5, 10, 20 mg/kg, Kruskal-Wallis over dose groups
  seizure severity: suppressed seizure severity
[2]; [3]
  tonic phase (TP) of GTCS: completely abolished TP
[2]; P25 rats, Kruskal-Wallis over dose groups
  seizure severity: affected seizure severity
[2]; P25 rats, i.p. 10 mg/kg
  latencies of GS: prolonged
[2]; P25 rats, i.p. 20 mg/kg
  incidence of GTCS: completely suppressed these seizures
  seizure severity (score): decreased score
NMDARs
  IC50: 73 µM

## CC(=O)[C@H]1CCC2C3CC=C4C[C@@H](O)CC[C@]4(C)C3CC[C@@]21C (stereo partly drawn) [Pregnenolone (PE), pregnenolone]
[1]; 1 mg/kg, 12-day-old rats
  concentration at 20 min: 4.69 ng/g
[1]; 1 mg/kg, 25-day-old rats
  concentration at 20 min: 3.44 ng/g

## CC(=O)[C@@]1(O)CC[C@H]2[C@@H]3CC[C@@H]4C[C@H](OC(=O)[C@@H](N)CCC(=O)O)CC[C@]4(C)[C@H]3CC[C@@]21C [17-Hydroxypregnanolone glutamate]
[1]; P12
  fold increase in the concentration in the rat hippocampus above the basal levels: 84.6 x
  percentage of total significantly increased (5β) steroids in the rat hippocampus: 0.04%
[1]; P25
  fold increase in the concentration in the rat hippocampus above the basal levels: 14.7 x
  percentage of total significantly increased (5β) steroids in the rat hippocampus: 0.015%

## C[C@H](O)[C@@]1(O)CCC2C3CC[C@@H]4C[C@H](O)CC[C@]4(C)C3CC[C@@]21C (stereo partly drawn) [3α,17α,20α-Trihydroxy-5β-pregnane]
[1]; P12
  fold increase in the concentration in the rat hippocampus above the basal levels: 9.16 x
  percentage of total significantly increased (5β) steroids in the rat hippocampus: 0.74%
[1]; P25
  fold increase in the concentration in the rat hippocampus above the basal levels: 2.39 x
  percentage of total significantly increased (5β) steroids in the rat hippocampus: 1.05%
[1]; 1 mg/kg, 12-day-old rats
  concentration at 20 min: 5.86 ng/g
[1]; 1 mg/kg, 25-day-old rats
  concentration at 20 min: 0.951 ng/g

## CC(=O)[C@H]1CCC2C3CC[C@@H]4CC(=O)CC[C@]4(C)C3CC[C@@]21C (stereo partly drawn) [5β-Dihydroprogesterone, 5β-dihydroprogesterone]
[1]; P12
  fold increase in the concentration in the rat hippocampus above the basal levels: 19 x
  percentage of total significantly increased (5β) steroids in the rat hippocampus: 0.07%
[1]; P25
  fold increase in the concentration in the rat hippocampus above the basal levels: 1.9 x
  percentage of total significantly increased (5β) steroids in the rat hippocampus: 0.09%
[1]; 1 mg/kg, 12-day-old rats
  concentration at 20 min: 0.477 ng/g
[1]; 1 mg/kg, 25-day-old rats
  concentration at 20 min: 0.0943 ng/g

## C[C@H](O)[C@H]1CCC2C3CC[C@@H]4C[C@H](O)CC[C@]4(C)C3CC[C@@]21C (stereo partly drawn) [3α,20α-Dihydroxy-5β-pregnane]
[1]; P12
  fold increase in the concentration in the rat hippocampus above the basal levels: 78.1 x
  percentage of total significantly increased (5β) steroids in the rat hippocampus: 1.23%
[1]; P25
  fold increase in the concentration in the rat hippocampus above the basal levels: 15.7 x
  percentage of total significantly increased (5β) steroids in the rat hippocampus: 1.72%
[1]; 1 mg/kg, 12-day-old rats
  concentration at 20 min: 8.42 ng/g
[1]; 1 mg/kg, 25-day-old rats
  concentration at 20 min: 0.919 ng/g

## C[C@]12CC[C@H](O)CC1=CC[C@@H]1[C@@H]2CC[C@]2(C)C(=O)CC[C@@H]12 [Dehydroepiandrosterone (DHEA), dehydroepiandrosterone]
[1]; 1 mg/kg, 12-day-old rats
  concentration at 20 min: 1.13 ng/g
[1]; 1 mg/kg, 25-day-old rats
  concentration at 20 min: 0.644 ng/g

## C[C@]12CC[C@H](OS(=O)(=O)O)CC1=CCC1C2CC[C@@]2(C)C1CC[C@@H]2O (stereo partly drawn) [Androstenediol sulfate, androstenediol sulfate]
[1]; 1 mg/kg, 12-day-old rats
  concentration at 20 min: 6.07 ng/g
[1]; 1 mg/kg, 25-day-old rats
  concentration at 20 min: 1.62 ng/g

## C[C@]12CC[C@@H](O)C[C@H]1CC[C@@H]1[C@@H]2[C@@H](O)C[C@]2(C)[C@@H](C(=O)CO)CC[C@@H]12 [3α,5β-THCC, 3α,5β-tetrahydrocorticosterone]
[1]; P12
  fold increase in the concentration in the rat hippocampus above the basal levels: 4.47 x
[1]; P12, 1 mg/kg
  percentage of total significantly increased (5β) steroids in the rat hippocampus: approximately 8%
[1]; P12, listed as 3α,5β-Tetrahydrocorticosterone (3α,5β-THCC), 1 mg/kg
  percentage of total significantly increased (5β) steroids in the rat hippocampus: 8.12%
[1]; P25
  fold increase in the concentration in the rat hippocampus above the basal levels: 1 x
  percentage of total significantly increased (5β) steroids in the rat hippocampus: less than 0.01%

## CC(=O)[C@@]1(O)CC[C@H]2[C@@H]3CC=C4CCCC[C@]4(C)[C@H]3CC[C@@]21C [17α-hydroxypregn-5-en-20-one]
[1]; 1 mg/kg
  measurable concentration in the rat brain: did not detect measurable concentrations

## CC(=O)[C@H]1CC[C@H]2[C@@H]3CC[C@H]4C[C@H](O)CC[C@]4(C)[C@H]3CC[C@]12C [Allopregnanolone, allopregnanolone]
[1]; 1 mg/kg, 12-day-old rats
  concentration at 20 min: 0.246 ng/g
[1]; 1 mg/kg, 25-day-old rats
  concentration at 20 min: 0.144 ng/g

## CC(=O)[C@H]1CC[C@H]2[C@@H]3CC[C@@H]4C[C@H](O)CC[C@]4(C)[C@H]3CC[C@]12C [PA, pregnanolone]
[1]; P12
  fold increase in the concentration in the rat hippocampus above the basal levels: 272 x
  percentage of total significantly increased (5β) steroids in the rat hippocampus: 9.47%
[1]; P12 animals, 1 mg/kg
  increase in concentration compared with basal levels: up to 272 fold
[1]; P25
  fold increase in the concentration in the rat hippocampus above the basal levels: 12.8 x
  percentage of total significantly increased (5β) steroids in the rat hippocampus: 9.30%
[1]; 1 mg/kg, 12-day-old rats
  concentration at 20 min: 63.6 ng/g
[1]; 1 mg/kg, 25-day-old rats
  concentration at 20 min: 5.02 ng/g
[1]; stated over P12 and P25 animals, 20 min after PA-G
  percentage of the brain's total 5β-steroids in the hippocampus after PA-G administration: approximately 10%

## C[C@H](O)[C@H]1CC[C@H]2[C@@H]3CC[C@@H]4C[C@H](OC(=O)[C@@H](N)CCC(=O)O)CC[C@]4(C)[C@H]3CC[C@]12C [(20S)-Hydroxypregnanolone glutamate]
[1]; P12
  fold increase in the concentration in the rat hippocampus above the basal levels: 99.7 x
  percentage of total significantly increased (5β) steroids in the rat hippocampus: 0.53%
[1]; P25
  fold increase in the concentration in the rat hippocampus above the basal levels: 10.2 x
  percentage of total significantly increased (5β) steroids in the rat hippocampus: 0.93%

## CC(=O)[C@H]1CC[C@H]2[C@@H]3CC[C@@H]4C[C@H](OS(=O)(=O)O)CC[C@]4(C)[C@H]3CC[C@]12C [PA-S, pyridinium 20-oxo-5β-pregnan-3α-yl sulfate]
[2]; P12 rats
  incidence of generalized seizures (GS): completely eliminated GS
[2]; P12 rats, i.p. doses of 5 mg/kg and higher, 20 min before PTZ 100 mg/kg s.c.
  seizure severity: significant decrease in seizure severity
[2]; [3]
  latencies of GS: significantly prolonged the latencies of GS
  tonic phase (TP) of GTCS: completely abolished TP
[2]; P25 rats
  parameters of minimal seizures (mS): did not affect any parameters of mS
  tonic phase (TF) of GTCS: did not exhibit specific effects against the TF of GTCS
[2]; P25 rats, chi2 test over dose groups, Fisher's tests no differences between individual groups
  incidence of GS: affected the incidence of GS
[2]; P25 rats, i.p. 20 mg/kg
  seizure severity (score): lower score
NMDARs
  IC50: 24 µM

## CC(=O)[C@@]1(O)CCC2C3CC[C@H]4C[C@H](O)CC[C@]4(C)C3CC[C@@]21C (stereo partly drawn) [17-Hydroxyallopregnanolone]
[1]; 1 mg/kg, 12-day-old rats
  concentration at 20 min: 8.36 ng/g
[1]; 1 mg/kg, 25-day-old rats
  concentration at 20 min: 3.19 ng/g

## 17α-hydroxyprogesterone
[1]; 1 mg/kg
  measurable concentration in the rat brain: did not detect measurable concentrations

## C[C@]12CC[C@H]3[C@@H](CC=C4C[C@@H](O)CC[C@@]43C)[C@@H]1CC[C@@H]2O [Androstenediol, androstenediol]
[1]; 1 mg/kg, 12-day-old rats
  concentration at 20 min: 0.758 ng/g
[1]; 1 mg/kg, 25-day-old rats
  concentration at 20 min: 0.364 ng/g
